Test results published in ChEMBL document CHEMBL3608240, “Tetrahydropyrrolo-diazepenones as inhibitors of ERK2 kinase” (Bioorg Med Chem Lett, 2015).

Columns and labels:
[1] = Clearance in rat at 1 mg/kg, iv relative to hepatic blood flow; assay type: ADME, organism-based, Liver; conditions: in vivo
[2] = Oral bioavailability in rat at 250 mg/kg; assay type: ADME, organism-based; conditions: in vivo

clearance [1]: 79 mL/min/kg | bioavailability [2]: < 10%
Compound: O=C1c2cc(-c3ccnc(NC4CCOCC4)n3)cn2CCCN1[C@H](CO)c1ccccc1
